# Experimental data taken from patent publication US6025365A, “Chelerythrine and radiation combined tumor therapy” (Arch Development Corp., priority 1997, dated 2000).
# Key:
# [1] = system: neutral sphingomyelinase; assay: Mixed micellar assay, neutral sphingomyelinase activity in treated WEHI-231 cells; format: cell-based, murine; conditions: chelerythrine, within 30 minutes; SD
# Experimental: FIG. 7C. Graph of neutral and acidic sphingomyelinase activity normalized to percent of control. Cells (2×10^7) were treated with chelerythrine for 30 minutes prior to being assayed for neutral or acidic sphingomyelinase activity. Error bars represent +/- SEM from 4 individual studies with duplicate determinants.
# The mixed micellar sphingomyelinase assay using ^[14] C labeled sphingomyelin was performed as described (Wiegmann et al., 1994) with minor modifications as described herein. Exponentially growing cells 2×10^7 were treated, collected, and lysed in 200 μl of neutral buffer (20 mM Hepes, pH 7.4; 10 mM MgCl2, 2 mM EDTA, 5 mM DTT, […], 10 mM b-glycerolphosphate, 750 μM ATP, 1 mM PMSF, Leupeptin, Pepstatin, 2% Triton X-100) or an acid buffer (pH=5.5, 2% Triton X-100, 1 mM PMSF, Leupeptin, Pepstatin). After incubation for 5 minutes at 4° C., cells were homogenized by sonication and cell debris were removed by low speed centrifugation (800×g). The protein concentration was measured using the BioRad protein assay system (BioRad). Protein (50 μg) was incubated for 2 hours at 37° C. in a buffer (1 ml final volume) containing 20 mM HEPES, 1 mM MgCl2, and 0.9 μl [N-methyl-^14 C sphingomyelin]. […] Radioactive phosphorylcholine was measured by scintillation counting. Data is expressed as a percent of control for both the acidic and neutral sphingomyelinases. […]
# [2] = system: WEHI-231 cells; assay: Sphingomyelin mass by lipid extraction / TLC; format: cell-based, murine; conditions: 10 μM chelerythrine, 60 minutes
# Experimental: FIG. 7A. Inhibition of PKC causes an increase in ceramide production through the activation of a neutral sphingomyelinase and decreases in sphingomyelin levels. Ceramide production was quantitated using the DAG kinase assay for WEHI-231 JM cells and total lipid extraction was used to assay sphingomyelin mass. Following addition of 10 μM chelerythrine, cells were lysed at the appropriate time points as described herein. Each data point represents the average percentage change in ceramide or sphingomyelin generation from baseline derived from at least 8 independent studies for all time points with the exception of those marked with * (n=4). Standard deviations depicted by error bars.
# FIG. 7B. […] Ceramide production and sphingomyelin mass was quantitated identical to that for chelerythrine. Cells were lysed 2 hours following the addition of 250 nM calphostin C. […]
# Cells were prelabeled with [^3 H] palmitate (10 μCi/ml) for 24 hours to isotopic equilibrium in 15 ml glass tubes to minimize changes in cellular ceramide and sphingomyelin due to handling and changing of media (Borchardt et al., 1994). […] Autoradiographs were quantitated using an Epson 1200 c 30 bit scanner and NIH Image software (public domain program developed at the NIH and available from the Internet via FTP from zippy.nimh.nih.gov). […]
smiles,measurement,setting,value
"COc1ccc2c(c[n+](C)c3c4cc5c(cc4ccc23)OCO5)c1OC [chelerythrine, 1,2-dimethoxy-12-methyl[1,3]benzodioxolo[5,6-c]phenanthridinium]",neutral sphingomyelinase activity,[1],235% (+/-38 SD)
same,sphingomyelin mass,[2],about 55 % of control
